Here are results for nine molecules from US20140128411A1, “FUNGICIDAL COMPOSITION AND METHOD FOR CONTROLLING PLANT DISEASES” (Ishihara Sangyo Kaisha, Ltd., priority 2011, published 2014).

Values joined by “and” are separate entries in the source; they are usually repeats but may differ in a detail not shown here. Equal entries are not always repeated.

In assay [1] the test system is Erysiphe graminis. Description: Test on preventive effect against wheat powdery mildew. The format is in vivo, Erysiphe graminis on wheat (cultivar: Norin-61). On the set-up: key: control value = (1 − a/b)×100; a, b = sporulation area treated/untreated. To be noted: single compound alone. How it is done: Wheat (cultivar: Norin-61) was cultivated in a plastic pot having a diameter of 7.5 cm, and when it reached 1.5-leaf stage, a chemical solution having each test compound adjusted to a prescribed concentration, was applied by a spray gun in an amount of 5 ml/seedling. After the chemical solution dried, conidia of Erysiphe graminis were dusted and inoculated and maintained in a constant temperature chamber at 20° C. From 6 to 8 days after the inoculation, the area of sporulation was investigated, and the control value was determined in accordance with the following formula, and the results are shown in Tables 1 to 7. The area of sporulation in the non-treated plot was determined in the same manner as for the treated plot except that water was applied by a spray gun instead of the chemical solution.
(§1) Control value=(1−a/b)×100
a: area of sporulation in the treated plot
b: area of sporulation in the non-treated plot
Based on the obtained control value, an expected value (control value) was calculated by the Colby's formula. The expected values by the Colby's formula are also shown in brackets ( ) in Tables 1 to 7.
When the experimental value is higher than the expected value, the fungicidal composition of the present invention has a synergistic effect against wheat powdery mildew.

For assay [2], the system named is Botrytis cinerea. Description: Test on preventive effect against kidney bean gray mold. The format is in vivo, Botrytis cinerea on kidney bean (cultivar: Taishokintoki). To be noted: single compound alone. How it is done: Kidney bean (cultivar: Taishokintoki) was cultivated in a plastic pot having a diameter of 12 cm, and when it reached 3 to 4-leaf stage, a chemical solution having each test compound adjusted to a prescribed concentration, was applied by a spray gun in an amount of 10 ml/seedling. After the chemical solution dried, a suspension of conidia of Botrytis cinerea was blotted on a paper disk having a diameter of 8 mm for implantation inoculation and maintained in a constant temperature chamber at 20° C. Upon expiration of 3 days from the inoculation, the lesion area was investigated, and the control value was determined in accordance with the following formula, and the results are shown in Table 8. The lesion area in the non-treated plot was determined in the same manner as for the treated plot except that water was applied by a spray gun instead of the chemical solution.
as §1
a: lesion area in the treated plot
b: lesion area in the non-treated plot
Based on the obtained control value, an expected value (control value) was calculated by the Colby's formula. The expected values by the Colby's formula are also shown in brackets ( ) in Table 8.
When the experimental value is higher than the expected value, the fungicidal composition of the present invention has a synergistic effect against kidney bean gray mold.

For `CCCCCCCCc1c(CC)nc2ncnn2c1N` [ametoctradin], the Control value in assay [1] (200 ppm) is given as 0; in assay [1] (400 ppm), 15.
On to `Cn1cc(C(=O)Nc2ccc(F)cc2-c2ccc(Cl)c(Cl)c2)c(C(F)F)n1` [bixafen], for which the Control value was 0 in assay [1] (250 ppm) and 50 in assay [1] (500 ppm).
Take `COc1cc(C)c(C(=O)c2c(OC)ncc(Cl)c2C)c(OC)c1OC` [component (a), 3-(2,3,4-trimethoxy-6-methylbenzoyl)-5-chloro-2-methoxy-4-methylpyridine]: the Control value is 0 in assay [2] (200 ppm); 0 in assay [2] (400 ppm, spray, lesion area 3 days after inoculation); 30 in assay [1] (0.25 ppm); 50 and 40 in assay [1] (0.5 ppm, spray, area of sporulation 6 to 8 days after inoculation).
Regarding `C=CCSC(=O)n1c(N)c(-c2ccccc2C)c(=O)n1C(C)C` [fenpyrazamine], the Control value in assay [1] (63 ppm) and in assay [1] (250 ppm) was 0 throughout.
Turning to `O=C(NCCc1ncc(C(F)(F)F)cc1Cl)c1ccccc1C(F)(F)F` [fluopyram], the Control value was determined as 40 in assay [1] (16 ppm) and 70 in assay [1] (31 ppm).
As to `Cn1cc(C(=O)Nc2ccccc2-c2cc(F)c(F)c(F)c2)c(C(F)F)n1` [fluxapyroxad], the figures for the Control value in assay [1] (6.3 ppm) and in assay [1] (50 ppm) were 30 and 50, respectively.
On to `CC(C)C1C2CCC1c1c(NC(=O)c3cn(C)nc3C(F)F)cccc12` (centres unmarked) [isopyrazam], for which the Control value in assay [1] (16 ppm) is recorded as 50; in assay [1] (31 ppm), 90.
Take `Cc1nn(C)c(F)c1C(=O)Nc1ccccc1C(C)CC(C)C` (centres unmarked) [penflufen]: the figures for the Control value in assay [2] (50 ppm) and in assay [2] (100 ppm) were 40 and 50, respectively.
On to `Cn1cc(C(=O)Nc2ccccc2C2CC2C2CC2)c(C(F)F)n1` (centres unmarked) [sedaxane], for which the Control value in assay [1] (6.3 ppm) is 0; in assay [1] (12.5 ppm), 30.
